Among the data in patent US8604028B2, “Furopyridinyl-substituted 1,4-dihydropyridine derivatives and methods of use thereof” (Bayer Intellectual Property GmbH, priority 2009, dated 2013) are IC50 values, retold here.

The target of the assay is N-terminally His6-tagged recombinant kinase domain of the human c-Met (amino acids 960-1390) (Homo sapiens (Human), UniProt P08581). The assay is described as follows: c-Met Receptor Tyrosine Kinase Homogeneous Time-Resolved Fluorescence Assay (Alternative Format). The conditions noted are these: c-Met kinase inhibition, HTRF format, ATP 10 μM. The class given is biochemical. An excerpt:
c-Met Receptor Tyrosine Kinase Homogeneous Time-Resolved Fluorescence Assay (Alternative Format):
The N-terminally His6-tagged recombinant kinase domain of the human c-Met (amino acids 960-1390), expressed in insect cells (SF21) and purified by Ni-NTA affinity chromatography and consecutive size exclusion chromatography (Superdex 200), is used. Alternatively, commercially available c-Met (Millipore) can be used. As substrate for the kinase reaction, the biotinylated poly-Glu,Tyr (4:1) copolymer (#61GT0BLC, Cis Biointernational, Marcoule, France) is used.
For the assay, 50 nL of a 100-fold concentrated solution of the test compound in DMSO is pipetted into a black low-volume 384-well microtiter plate (Greiner Bio-One, Frickenhausen, Germany). […]
The resulting mixture is incubated for 1 h at 22° C. to allow the binding of the biotinylated phosphorylated peptide to the streptavidine-XLent and the PT66-Eu-chelate. Subsequently, the amount of phosphorylated substrate is evaluated by measurement of the resonance energy transfer from the PT66-Eu-chelate to the streptavidine-XLent. Therefore, the fluorescence emissions at 620 nm and 665 nm after excitation at 350 nm are measured in an HTRF reader, e.g. Rubystar (BMG Lab-technologies, Offenburg, Germany) or Viewlux (Perkin-Elmer). […]
A general note: In TR-FRET formats the signal depends on donor and acceptor labels being close together.

By IC50 is commonly meant the point on the concentration scale where inhibition reaches its midpoint.

Chain of N-terminally His6-tagged recombinant kinase domain of the human c-Met (amino acids 960-1390) (P08581 960-1390): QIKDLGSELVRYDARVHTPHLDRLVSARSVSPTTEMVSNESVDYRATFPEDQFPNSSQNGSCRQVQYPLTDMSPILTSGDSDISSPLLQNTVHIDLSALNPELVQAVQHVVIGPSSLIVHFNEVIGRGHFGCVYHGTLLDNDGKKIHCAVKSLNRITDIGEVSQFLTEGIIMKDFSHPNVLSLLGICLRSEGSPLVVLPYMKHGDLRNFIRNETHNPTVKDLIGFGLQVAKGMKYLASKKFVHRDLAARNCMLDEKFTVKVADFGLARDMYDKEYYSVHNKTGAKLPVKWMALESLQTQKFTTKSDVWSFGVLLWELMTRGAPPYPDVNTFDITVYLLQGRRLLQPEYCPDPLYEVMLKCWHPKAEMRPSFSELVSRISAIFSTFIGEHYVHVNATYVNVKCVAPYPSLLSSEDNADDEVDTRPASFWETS

On to `N#CC1=C(C(F)F)NC(C(F)F)=C(C#N)C1c1cc2c(N)nccc2o1` [Example 18], for which the concentration for half-maximal inhibition (IC50) came out at 1.03 µM.
